Assay results from patent US11236068B2, “Fused ring compounds” (Genentech, Inc., priority 2018, dated 2022).

Molecular target: K-Ras G12C (Homo sapiens (Human), UniProt P01116, G12C)
Assay: Western blot assay for in cell alkylation of K-Ras G12C (HCC1171 cells)
Type: cell-based
Settings: 18 hours at 37° C., 7 point dose response
Description: HCC1171 cells were maintained in RPMI1640 supplemented with 10% FBS. Cells were plated in a 96-well plate at 20,000 cells/well and the following day compounds were added to the cells. After 18 hours at 37° C., cells were lysed in RIPA buffer (Sigma RO278) with 0.5% SDS and protease/phosphatase inhibitor cocktail. After through mixing to enable complete lysis, the lysates were cleared by centrifugation before 20 µl was transferred from each well and combined with loading buffer and reducing agent. After heating for 10 minutes at 95° C., […] of each sample was loaded onto a 4-20% Tris-Glycine gel and electrophoresed at 110V for 165 minutes in SDS-PAGE running buffer. Gels were transferred to a nitrocellulose membrane, blocked for 1 hour and stained overnight at 4° C. with primary antibody against K-Ras (polyclonal Proteintech 12063-1-AP). The membrane was then washed thoroughly and counterstained with anti-rabbit IRDye 800CW (LI-COR 926-32211) for one hour at room temperature. After final washes, the membrane was imaged on a LI-COR Odyssey CLx at medium resolution. […] To quantify this affect, the LICOR software was used to draw a rectangle over alkylated and unalkylated bands for each well and measured the total fluorescent intensity (FI) in each of these bands. The following formula was then used to calculate % alkylation: FI(alkylated)/(FI(alkylated)+FI(unalkylated))*100 for each well.
A 7 point dose response curve was used to determine the IC50 for each compound. Cell alkylation data are presented below in Table 3.

Sequence of K-Ras G12C (P01116 other isoform, or with tags, fused parts or gaps G12C): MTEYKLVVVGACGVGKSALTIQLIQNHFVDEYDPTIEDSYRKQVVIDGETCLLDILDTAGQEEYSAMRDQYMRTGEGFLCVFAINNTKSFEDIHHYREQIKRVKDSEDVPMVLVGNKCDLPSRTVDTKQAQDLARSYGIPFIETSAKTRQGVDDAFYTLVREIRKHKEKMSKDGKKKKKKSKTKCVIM

Row | EC50 | SMILES
1 | 0.56 µM | C=CC(=O)N1CCN(c2ncnc3cc(-c4nc(N)cc5ccccc45)c(Cl)cc23)CC1 [Example 1, 1-[4-[7-(3-amino-1-isoquinolyl)-6-chloro-quinazolin-4-yl]piperazin-1-yl]prop-2-en-1-one]
2 | 16 µM | C=CC(=O)N1CCN(c2ncnc3cc(-c4ncccc4C)c(Cl)cc23)CC1 [Example 2, 1-[4-[6-chloro-7-(3-methyl-2-pyridyl)quinazolin-4-yl]piperazin-1-yl]prop-2-en-1-one]
3 | 21 µM | C=CC(=O)N1CCN(c2ncnc3cc(-c4nc(N)cc5cccnc45)c(Cl)cc23)CC1 [Example 3, 1-[4-[7-(6-amino-1,7-naphthyridin-8-yl)-6-chloro-quinazolin-4-yl]piperazin-1-yl]prop-2-en-1-one]
4 | > 30 µM | C=CC(=O)N1CCN(c2ncnc3cc(-c4nc(N)cc5cnccc45)c(Cl)cc23)CC1 [Example 4, 1-[4-[7-(3-amino-2,6-naphthyridin-1-yl)-6-chloro-quinazolin-4-yl]piperazin-1-yl]prop-2-en-1-one]
5 | 2.8 µM | C=CC(=O)N1CCN(c2ncnc3cc(-c4nc(N)cc5c(Cl)cccc45)c(Cl)cc23)CC1 [Example 5, 1-[4-[7-(3-amino-5-chloro-1-isoquinolyl)-6-chloro-quinazolin-4-yl]piperazin-1-yl]prop-2-en-1-one]
6 | 10 µM | C=CC(=O)N1CCN(c2ncnc3cc(-c4nc(N)cc5cc(OC)ccc45)c(Cl)cc23)CC1 [Example 6, 1-[4-[7-(3-amino-6-methoxy-1-isoquinolyl)-6-chloro-quinazolin-4-yl]piperazin-1-yl]prop-2-en-1-one]
7 | 4.7 µM | C=CC(=O)N1CCN(c2ncnc3cc(-c4nc(N)cc(C)c4F)c(Cl)cc23)CC1 [Example 11, 1-(4-(7-(6-amino-3-fluoro-4-methylpyridin-2-yl)-6-chloroquinazolin-4-yl)piperazin-1-yl)prop-2-en-1-one]
8 | 8.1 µM | C=CC(=O)N1CCN(c2nc(NC[C@@H](F)C(C)(C)O)nc3cc(-c4nc(N)cc(C)c4F)c(Cl)cc23)CC1 [Example 12, (R)-1-(4-(7-(6-amino-3-fluoro-4-methylpyridin-2-yl)-6-chloro-2-((2-fluoro-3-hydroxy-3-methylbutyl)amino)quinazolin-4-yl)piperazin-1-yl)prop-2-en-1-one]
9 | 1.3 µM | C=CC(=O)N1CCN(c2ncnc3cc(-c4nc(N)cc(C)c4C)c(Cl)cc23)CC1 [Example 13, 1-(4-(7-(6-amino-3,4-dimethylpyridin-2-yl)-6-chloroquinazolin-4-yl)piperazin-1-yl)prop-2-en-1-one]
10 | 0.4 µM | C=CC(=O)N1CCN(c2ncnc3cc(-c4nc(N)cc(C)c4Cl)c(Cl)cc23)CC1 [Example 14, 1-(4-(7-(6-amino-3-chloro-4-methylpyridin-2-yl)-6-chloroquinazolin-4-yl)piperazin-1-yl)prop-2-en-1-one]
11 | 2.8 µM | C=CC(=O)N1CCN(c2ncnc3cc(-c4nc(N)ccc4C)c(Cl)cc23)CC1 [Example 15, 1-(4-(7-(6-amino-3-methylpyridin-2-yl)-6-chloroquinazolin-4-yl)piperazin-1-yl)prop-2-en-1-one]
12 | 8.2 µM | C=CC(=O)N1CCN(c2ncnc3cc(-c4nc(NC(C)=O)ccc4C)c(Cl)cc23)CC1 [Example 16, N-(6-[6-chloro-4-[4-(prop-2-enoyl)piperazin-1-yl]quinazolin-7-yl]-5-methylpyridin-2-yl)acetamide]
13 | 2.3 µM | C=CC(=O)N1CCN(c2ncnc3cc(-c4nc(N)ccc4C(F)(F)F)c(N4CCC4)cc23)CC1 [Example 20, 1-[4-[7-[6-amino-3-(trifluoromethyl)-2-pyridyl]-6-(azetidin-1-yl)quinazolin-4-yl]piperazin-1-yl]prop-2-en-1-one]
14 | 2.8 µM | C=CC(=O)N1CCN(c2ncnc3cc(-c4nc(N)ccc4C(F)(F)F)c(C(C)(F)F)cc23)CC1 [Example 21, 1-(4-(7-(6-amino-3-(trifluoromethyl)pyridin-2-yl)-6-(1,1-difluoroethyl)quinazolin-4-yl)piperazin-1-yl)prop-2-en-1-one]
15 | 2.9 µM | C=CC(=O)N1CCC(C#N)(c2ncnc3cc(-c4nc(N)cc(C)c4C(F)(F)F)c(Cl)cc23)CC1 [Example 22, 4-[7-[6-amino-4-methyl-3-(trifluoromethyl)-2-pyridyl]-6-chloro-quinazolin-4-yl]-1-prop-2-enoyl-piperidine-4-carbonitrile]
16 | 0.91 µM | Cc1cc(N)nc(-c2cc3ncnc(N4CCN(C(=O)C5=CCC5)C(C#N)C4)c3cc2Cl)c1C(F)(F)F (stereo not drawn) [Example 23, 4-[7-[6-amino-4-methyl-3-(trifluoromethyl)-2-pyridyl]-6-chloro-quinazolin-4-yl]-1-(cyclobutene-1-carbonyl)piperazine-2-carbonitrile]
17 | 6.3 µM | Cc1cc(N)nc(-c2cc3ncnc(N4CCN(C(=O)C5CO5)C(C#N)C4)c3cc2Cl)c1C(F)(F)F (stereo not drawn) [Example 24, 4-[7-[6-amino-4-methyl-3-(trifluoromethyl)-2-pyridyl]-6-chloro-quinazolin-4-yl]-1-(oxirane-2-carbonyl)piperazine-2-carbonitrile]
18 | 4.2 µM | C=CC(=O)N1CCN(c2ncnc3cc(-c4nc(N)ccc4C(F)(F)F)c(Cl)cc23)CC1C(F)(F)F (stereo not drawn) [Example 25, 1-[4-[7-[6-amino-3-(trifluoromethyl)-2-pyridyl]-6-chloro-quinazolin-4-yl]-2-(trifluoromethyl)piperazin-1-yl]prop-2-en-1-one]
19 | 0.14 µM | C=C(F)C(=O)N1CCN(c2ncnc3cc(-c4nc(N)cc(C)c4C(F)(F)F)c(Cl)cc23)CC1 [Example 26, 1-(4-[7-[6-amino-4-methyl-3-(trifluoromethyl)pyridin-2-yl]-6-chloroquinazolin-4-yl]piperazin-1-yl)-2-fluoroprop-2-en-1-one]
20 | 0.14 µM | C=CC(=O)N1CCN(c2ncnc3c(F)c(-c4nc(N)cc5cccc(F)c45)c(Cl)cc23)CC1 [Example 27, 1-[4-[7-(3-amino-8-fluoro-1-isoquinolyl)-6-chloro-8-fluoro-quinazolin-4-yl]piperazin-1-yl]prop-2-en-1-one]
21 | 0.83 µM | C=CC(=O)N1CCN(c2ncnc3cc(-c4nc(N)ccc4C(F)(F)F)c(C4CC4)cc23)CC1 [Example 29, 1-[4-[7-[6-amino-3-(trifluoromethyl)-2-pyridyl]-6-cyclopropyl-quinazolin-4-yl]piperazin-1-yl]prop-2-en-1-one]
22 | 7.8 µM | C=CC(=O)N1CCN(c2nc(C(F)(F)F)nc3cc(-c4nc(N)cc(C)c4C(F)(F)F)c(Cl)cc23)CC1 [Example 30, 1-(4-[7-[6-amino-4-methyl-3-(trifluoromethyl)pyridin-2-yl]-6-chloro-2-(trifluoromethyl)quinazolin-4-yl]piperazin-1-yl)prop-2-en-1-one]
23 | 0.2 µM | C=CC(=O)N1CCN(c2nc(NC)nc3cc(-c4nc(N)cc(C)c4C(F)(F)F)c(Cl)cc23)CC1 [Example 31, 1-(4-[7-[6-amino-4-methyl-3-(trifluoromethyl)pyridin-2-yl]-6-chloro-2-(methylamino)quinazolin-4-yl]piperazin-1-yl)prop-2-en-1-one]
24 | 0.2 µM | C=CC(=O)N1CCN(c2nc(C)nc3cc(-c4nc(N)cc(C)c4C(F)(F)F)c(Cl)cc23)CC1 [Example 32, 1-(4-[7-[6-amino-4-methyl-3-(trifluoromethyl)pyridin-2-yl]-6-chloro-2-methylquinazolin-4-yl]piperazin-1-yl)prop-2-en-1-one]
25 | 2.1 µM | C=CC(=O)N1CCN(c2ncnc3cc(-c4nc(N)cc(C(F)(F)F)c4C)c(Cl)cc23)CC1 [Example 33, 1-(4-[7-[6-amino-3-methyl-4-(trifluoromethyl)pyridin-2-yl]-6-chloroquinazolin-4-yl]piperazin-1-yl)prop-2-en-1-one]
26 | 3.4 µM | C=CC(=O)N1CCN(c2ncnc3cc(-c4nc(N)cc(C5CC5)c4C(F)(F)F)c(Cl)cc23)CC1 [Example 34, 1-(4-(7-(6-amino-4-cyclopropyl-3-(trifluoromethyl)pyridin-2-yl)-6-chloroquinazolin-4-yl)piperazin-1-yl)prop-2-en-1-one]
27 | 0.45 µM | C=CC(=O)N1CCN(c2ncnc3cc(-c4nc(N)ccc4C(F)(F)F)c(Cl)cc23)CC1 [Example 35, 1-(4-[7-[6-amino-3-(trifluoromethyl)pyridin-2-yl]-6-chloroquinazolin-4-yl]piperazin-1-yl)prop-2-en-1-one]
28 | 5.5 µM | C=CC(=O)N1CCN(c2ncnc3cc(-c4nc(NC(=O)C5CC5)cc5ccccc45)c(Cl)cc23)CC1 [Example 36, N-(1-(4-(4-acryloylpiperazin-1-yl)-6-chloroquinazolin-7-yl)isoquinolin-3-yl)cyclopropanecarboxamide]
29 | 10 µM | C=CC(=O)N1CCN(c2ncnc3cc(-c4nc(NCC#N)cc5ccccc45)c(Cl)cc23)CC1 [Example 39, 2-[(1-[6-chloro-4-[4-(prop-2-enoyl)piperazin-1-yl]quinazolin-7-yl]isoquinolin-3-yl)amino]acetonitrile]
30 | 1.1 µM | C=CC(=O)N1CCN(c2ncnc3cc(-c4nc(N)ccc4OC(F)(F)F)c(Cl)cc23)CC1 [Example 40, 1-(4-[7-[6-amino-3-(trifluoromethoxy)pyridin-2-yl]-6-chloroquinazolin-4-yl]piperazin-1-yl)prop-2-en-1-one]
